# Patent US7867731B2, “HX2004-6 polypeptide expressed in cancerous cells” (Novartis Vaccines and Diagnostics, Inc., priority 1998, dated 2011)
# Legend:
# Format in all cases: cell-based, human
# [1] = test system: TTK mRNA; assay: Antisense depletion of TTK mRNA after transfection, quantitated by real-time PCR; conditions: SW620 cells, oligonucleotide final concentration 30 nM, normalized to beta-actin
# Description: A number of different oligonucleotides complementary to TTK mRNA were designed as potential antisense oligonucleotides, and tested for their ability to suppress expression of TTK. The ability of each designed antisense oligonucleotide to inhibit gene expression was tested through transfection into SW620 colon colorectal carcinoma cells. For each transfection mixture, a carrier molecule, preferably a lipitoid or cholesteroid, was prepared to a working concentration of 0.5 mM in water, sonicated to yield a uniform solution, and filtered through a 0.45 μm PVDF membrane. The antisense or control oligonucleotide was then prepared to a working concentration of 100 μM in sterile Millipore water. The oligonucleotide was further diluted in OptiME™ (Gibco/BRL), in a microfuge tube, to 2 μM, or approximately 20 μg oligo/ml of OptiMEM™. […]
# The level of target mRNA (TTK) in the transfected cells was quantitated in the cancer cell lines using the Roche LightCycler™ real-time PCR machine. […]
# An amplification mixture was prepared by mixing in the following order: 1×PCR buffer II, 3 mM MgCl2, 140 μM each dNTP, 0.175 pmol each oligo, 1:50,000 dil of SYBR® Green, 0.25 mg/ml BSA, 1 unit Taq polymerase, and H2O to 20 μl. […] As double stranded PCR product is produced during amplification, the fluorescence from SYBR®) Green increases. […]
# [2] = test system: SW620 cells; assay: Soft agar colony formation assay; conditions: 2000 cells per well, oligo added without delivery vehicle
# Description: The effect of TTK expression upon colony formation was tested in a soft agar assay. Soft agar assays were conducted by first establishing a bottom layer of 2 ml of 0.6% agar in media plated fresh within a few hours of layering on the cells. The cell layer was formed on the bottom layer by removing cells transfected as described above from plates using 0.05% trypsin and washing twice in media. The cells were counted in a Coulter counter, and resuspended to 10^6 per ml in media. 10 μl aliquots are placed with media in 96-well plates (to check counting with WST1), or diluted further for soft agar assay. 2000 cells are plated in 800 μl 0.4% agar in duplicate wells above 0.6% agar bottom layer. After the cell layer agar solidifies, 2 ml of media is dribbled on top and antisense or reverse control oligo is added without delivery vehicles. Fresh media and oligos are added every 3-4 days. Colonies are formed in 10 days to 3 weeks. Fields of colonies were counted by eye. Wst-1 metabolism values can be used to compensate for small differences in starting cell number. Larger fields can be scanned for visual record of differences.
# [3] = test system: SW620 cells; assay: Cell death by LDH release (Cytotoxicity Detection Kit)
# Description: SW620 cells were transfected as described for proliferation assays. For cytotoxic effect in the presence of cisplatin (cis), the same protocol was followed but cells were left in the presence of 2 μM drug. Each day, cytotoxicity was monitored by measuring the amount of LDH enzyme released in the medium due to membrane damage. The activity of LDH was measured using the Cytotoxicity Detection Kit from Roche Molecular Biochemicals. The data is provided as a ratio of LDH released in the medium vs. the total LDH present in the well at the same time point and treatment (rLDH/tLDH).
Substance,depletion of TTK RNA in the transfection assays [1],"colony size and number compared to reverse control (79-9RC) or control oligonucleotides (52-3AS, 52-3RC) [2]","sensitization of the cells to treatment by cisplatin ([3]; 2 μM cisplatin, rLDH/tLDH)",cell death compared to control oligo (rLDH/tLDH) ([3]; day 3)
79-5AS (antisense GGGACTCTTCCAAATGGGCATGACT; chemistry not given here) [Oligo 79-5AS],effectively deplete TTK RNA,–,–,–
79-9AS (antisense TCCAGTAACTCTTGCGTTCCCATGG; chemistry not given here) [Oligo 79-9AS],effectively deplete TTK RNA,decreased colony size and number,–,–
Oligo 79-9AS: TTK antisense oligonucleotide TCCAGTAACTCTTGCGTTCCCATGG (SEQ ID NO:6) (chemistry not given here),–,–,does not sensitize the cells to treatment by cisplatin at a detectable level,increased death
